Publication PMC10967572, “Induction of Oxidative Stress and Ferroptosis in Triple-Negative Breast Cancer Cells by Niclosamide via Blockade of the Function and Expression of SLC38A5 and SLC7A11” (Antioxidants, 2024)
Structures can show the parent of a compound that is named as a salt. Residues, ends and D or L forms follow the SMILES beside them. *: point of attachment. Cbz = O=C(OCc1ccccc1)*; CH2F = FC*

Assays:
[1] = tested on: TNBC cells (MB231 and TXBR100); test: MTT cell proliferation / viability assay; assay type: cell-based, human; conditions: niclosamide 1 μM with inhibitor 10 μM (hydroxychloroquine 25 μM), 48 h
Procedure: Cells were seeded in 96-well plates; after 24 h, niclosamide treatment was initiated. Cells were then cultured for 72 h with fresh medium containing freshly prepared niclosamide supplied every 24 h. Cells were washed with phosphate-buffered saline twice followed by MTT reagent (ATCC). Treatment and lysis of the cells were done as per the manufacturer’s instructions. Absorbance of the lysate was measured at 550 nm. Cell viability assay with various cell-death inhibitors was also performed as described above. Cells were treated with niclosamide (1 µM) along with cell death inhibitors (10 µM), except hydroxychloroquine (25 µM) for 48 h.

[2] = tested on: MB231 cells and TXBR100 cells; test: Lipid radical (ferroptosis) assay with LipiRadical Green; assay type: cell-based, human; conditions: inhibitor 10 μM with niclosamide 5 μM; MB231 and TXBR100
Procedure: Lipid radical (ferroptosis) assay and iron assay were performed as follows. Cells were cultured on a 25 mm glass coverslip until they reached 60–70% confluency (~48 h). At the time of the experiment, cells were washed with NaCl buffer, pH 7.5 and then incubated with 1 µM of LipiRadical Green (a lipid radical detection reagent, FDV-0042, Funakoshi, Tokyo, Japan) or Ferro-orange (an iron detection probe, F374, Dojindo, Rockville, MD, USA) in NaCl buffer, pH 7.5 for 20 min and then washed with NaCl buffer, pH 7.5. To analyze the effects of modifiers of iron levels and lipid peroxidation, the cells were co-treated with the modifiers and the respective fluorescent probe for 20 min and then washed. The glass coverslip containing the cells was then probed under an inverted microscope. The fluorescence imaging was captured using a Nikon T1-E microscope with A1 confocal super-resolution module (Nikon, Dallas, TX, USA), with a 60× objective, at 488 nm. The images represent a maximum projection intensity derived from a Z-stack. The fluorescence quantification was performed by measuring the corrected total cell fluorescence (CTCF) using Image J (version: 2.14.0/1.54f) and the following formula; CTCF = (integrated density) − (area of cell of interest) × (mean fluorescence of background).

[3] = tested on: Nrf2; test: Nrf2 expression and subcellular localization (immunostaining, Western blot, qRT-PCR) in TNBC cells; assay type: cell-based, human; conditions: MB231 and TXBR100; 24 h; Se-Met 250 μM and 1 mM, monomethylfumarate 0.1 mM; immunostaining and Western blot
Procedure: (§1) Total RNA was extracted from cells using TRIzol Reagent (ThermoFisher Scientific, Waltham, MA, USA) and the RNA was reverse-transcribed using a high-capacity cDNA reverse transcription kit (ThermoFisher Scientific, Waltham, MA, USA) according to the manufacturer’s protocol. Quantitative RT-PCR was performed with Takara Taq Hot Start Version (TaKaRa Biotechnology, Shiga, Japan) or Power SYBR Green PCR master mix (Bio-Rad, Hercules, CA, USA). Primer sequences are shown in Supplemental Table S1. The relative mRNA expression was determined by the 2^−∆∆Ct method. Additionally, 18S was used as a housekeeping gene for normalization.
Cells and tumor tissues were lysed in Pierce™ RIPA buffer (ThermoFisher Scientific, Waltham, MA, USA) supplemented with Halt™ Protease and Phosphatase Inhibitor Cocktail (ThermoFisher Scientific, Waltham, MA, USA). Homogenates were centrifuged, and supernatants were used for protein measurement via Pierce™ BCA Protein Assay Kit (ThermoFisher Scientific, Waltham, MA, USA). […] Western blot samples were prepared in Laemmli sample buffer (Bio-Rad Laboratories, Hercules, CA, USA). They were loaded onto a SDS–PAGE gel and transferred onto a PVDF membrane (Bio-Rad Laboratories, Hercules, CA, USA). The membrane was blocked and antibodies diluted in 5% nonfat dry milk (Bio-Rad Laboratories, Hercules, CA, USA) or in 5% bovine serum albumin (Irvine Scientific, Santa Ana, CA, USA) were used. Protein bands were visualized using Pierce™ ECL Western Blotting Substrate (ThermoFisher Scientific, Waltham, MA, USA) and developed on the autoradiography film (Santa Cruz, Dallas, TX, USA). Primary antibodies were purchased either from Cell Signaling (Danvers, MA, USA) [anti-GPX4 (#52455), anti-FTH (#4393), anti-HSP60 (#12165), anti-phospho-p70S6K (#9205), anti-p70S6K (#2708)] or from Abcam (Waltham, MA, USA) [Nrf2 (#ab62352)]. Secondary antibody Horseradish peroxidase-conjugated goat anti-rabbit IgG (#1706515) was purchased from Bio-Rad Laboratories (Hercules, CA, USA). For quantification of protein levels by the densitometric analysis, the experiment was carried out in triplicate and the data were collected from the resultant three Western blots.

[4] = tested on: SLC7A11; test: SLC7A11 transport activity (glutamate uptake) after treatment of cells; assay type: cell-based, human; conditions: MB231, TXBR100 and MB453 cells treated before uptake
Procedure: The transport activity of SLC7A11 was calculated by subtracting the diffusional component from total uptake. […] Confluent cultures were used for uptake measurements.

[5] = target: SLC38A5 (Homo sapiens, UniProt Q8WUX1); test: Inhibition of SLC38A5-mediated [3H]-serine uptake in TNBC cells; conditions: IC50 for the inhibition of SLC38A5-mediated serine uptake, serine 5 μM, LiCl buffer pH 8.5 with 5 mM tryptophan
Chain of SLC38A5 (Homo sapiens, UniProt Q8WUX1) (Q8WUX1 whole entry): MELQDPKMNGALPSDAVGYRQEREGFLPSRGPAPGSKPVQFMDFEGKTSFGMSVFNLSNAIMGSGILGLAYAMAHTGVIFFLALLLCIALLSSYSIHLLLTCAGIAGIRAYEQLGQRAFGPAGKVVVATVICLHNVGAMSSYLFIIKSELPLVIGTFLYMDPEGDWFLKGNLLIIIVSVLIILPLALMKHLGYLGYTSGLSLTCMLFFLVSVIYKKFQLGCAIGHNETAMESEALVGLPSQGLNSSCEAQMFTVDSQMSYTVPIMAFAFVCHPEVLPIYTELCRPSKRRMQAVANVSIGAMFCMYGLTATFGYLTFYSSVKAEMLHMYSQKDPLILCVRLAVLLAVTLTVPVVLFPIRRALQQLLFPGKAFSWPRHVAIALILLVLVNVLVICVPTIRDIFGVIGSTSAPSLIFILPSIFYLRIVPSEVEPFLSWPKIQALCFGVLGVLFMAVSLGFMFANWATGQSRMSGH

[6] = tested on: SLC38A5; set-up: method as in PMID 11243884, PMID 37812701; conditions: cited from earlier work
[7] = tested on: Nrf2 target genes (SLC7A11, HO-1, GCLC, GCLM); test: qRT-PCR of Nrf2 target genes in TNBC cells; assay type: cell-based, human; conditions: MB231, TXBR100 and MB453, Se-Met 1 mM, 16 h
Procedure: as §1

[8] = tested on: MB231 cells and TXBR100 cells; test: Cellular glutathione levels (GSH-Glo assay); assay type: cell-based, human; conditions: Homo sapiens; buthionine sulfoximine 100 μM; both cell lines (MB231, TXBR100)
Procedure: Control and niclosamide-treated cells were used for measurement of cellular glutathione levels as instructed in the manufacturer’s protocol (GSH-Glo assay, Promega, Madison, WI, USA). The levels of malondialdehyde were measured using lipid peroxidation kit [Lipid Peroxidation (MDA) Assay Kit (MAK085), Millipore-sigma, St. Louis, MO, USA].

| Structure (SMILES) | effect of cell death inhibitor on cell viability in the presence of niclosamide [1] | effect of cell death inhibitor on niclosamide-induced increase in lipid radical fluorescence [2] | cellular levels and nuclear localization of Nrf2 [3] | transport activity of SLC7A11 (glutamate uptake) in treated cells [4] | also measured |
| --- | --- | --- | --- | --- | --- |
| CCN(CCO)CCCC(C)Nc1ccnc2cc(Cl)ccc12 (centres unmarked) [hydroxychloroquine] | failed to promote cell viability |  |  |  |  |
| CCOC(=O)c1ccc(NC2CCCCC2)c(N)c1 [ferrostatin 1, ferrostatin-1] | improved cell viability | blocked this increase |  |  |  |
| CSCC[C@H](N)C(=O)O [methionine] |  |  | did not have any noticeable effect | did not have any effect | IC50 ([5]; MB231 cells): 518 µM; IC50 ([5]; TXBR100 cells): 316 µM |
| COC(=O)/C=C/C(=O)O [monomethylfumarate, monomethyl fumarate] |  |  | increased | stimulatory effect |  |
| COC(=O)C[C@H](NC(=O)[C@H](C)NC(=O)[C@@H](NC(=O)OCc1ccccc1)C(C)C)C(=O)CF [ZVAD-fmk] (Cbz-Val-Ala-Asp(OMe)-CH2F) | failed to promote cell viability | did not have any effect |  |  |  |
| N[C@@H](CO)C(=O)O [serine] |  |  |  |  | Kt value for SLC38A5-mediated transport [6]: 200 to 1300 µM |
| C[Se]CC[C@H](N)C(=O)O [Se-Met, seleno-methionine] |  |  | increased | increased substantially | mRNA levels for Nrf2 targets SLC7A11, HO-1, GCLC and GCLM [7]: significant increase; IC50 ([5]; MB231 cells): 680 µM; IC50 ([5]; TXBR100 cells): 453 µM |
| CCCCS(=N)(=O)CCC(N)C(=O)O (centres unmarked) [buthionine sulfoximine] |  |  |  |  | inhibition at 100 µM [8]: ~90% |
| CN1C(=O)C(Cc2c[nH]c3ccccc23)NC1=S (centres unmarked) [necrostatin, necrostatin-1] | failed to promote cell viability | did not have any effect |  |  |  |
